The values that follow are results of earlier work, collected in patent US5084277A, “Vaginal progesterone tablet” (priority 1990, dated 1992).

Assay in data set [1]: not given
The source holds these as a separate data set.

Take `CC(=O)[C@H]1CC[C@H]2[C@@H]3CCC4=CC(=O)CC[C@]4(C)[C@H]3CC[C@]12C` [progesterone, pregn-4-ene-3,20-dione]: the “Plasma half-life of endogenous progesterone” value (endogenous) is “a few minutes”. For the setting “in vivo”, the “Storage of progesterone in body fat” value was “A small amount of progesterone is stored in body fat”. The “Time within which all exogenous progesterone is metabolized” value (suggested by Myers et al.) is no more than 24 h. In addition, the “Tolerability of parenteral administration” value in data set [1] (deep intramuscular injections) is “often very painful and irritating at the site of injection”. In addition, in data set [1] (in vivo, po), the “Serum levels after oral administration” value was “significant but highly variable serum levels”. In data set [1] (rectal), the “Absorption by the rectal route” value is on record as “highly variable”.
